Assay results published in article PMC8518382, “Identification of a Bromodomain‐like Region in 15‐Lipoxygenase‐1 Explains Its Nuclear Localization” (Angewandte Chemie (International Ed. in English), 2021).

Experiments:
15-LOX-1 [1] = molecular target: T1, 15-LOX-1 (Homo sapiens, UniProt P16050); assay: 15-LOX-1 activity assay, UV-absorbance change for linoleic acid conversion; type: biochemical; parameters: His-tag (N); made in house; host or cells: E. coli BL21(DE3); conditions: for IC50: 10 min pre-incubation at RT, 25 µM linoleic acid, absorbance 234 nm; for Mode of inhibition (Lineweaver–Burk plots): Km constant, Vmax decreases with inhibitor concentration
T1 sequence (P16050 1-662): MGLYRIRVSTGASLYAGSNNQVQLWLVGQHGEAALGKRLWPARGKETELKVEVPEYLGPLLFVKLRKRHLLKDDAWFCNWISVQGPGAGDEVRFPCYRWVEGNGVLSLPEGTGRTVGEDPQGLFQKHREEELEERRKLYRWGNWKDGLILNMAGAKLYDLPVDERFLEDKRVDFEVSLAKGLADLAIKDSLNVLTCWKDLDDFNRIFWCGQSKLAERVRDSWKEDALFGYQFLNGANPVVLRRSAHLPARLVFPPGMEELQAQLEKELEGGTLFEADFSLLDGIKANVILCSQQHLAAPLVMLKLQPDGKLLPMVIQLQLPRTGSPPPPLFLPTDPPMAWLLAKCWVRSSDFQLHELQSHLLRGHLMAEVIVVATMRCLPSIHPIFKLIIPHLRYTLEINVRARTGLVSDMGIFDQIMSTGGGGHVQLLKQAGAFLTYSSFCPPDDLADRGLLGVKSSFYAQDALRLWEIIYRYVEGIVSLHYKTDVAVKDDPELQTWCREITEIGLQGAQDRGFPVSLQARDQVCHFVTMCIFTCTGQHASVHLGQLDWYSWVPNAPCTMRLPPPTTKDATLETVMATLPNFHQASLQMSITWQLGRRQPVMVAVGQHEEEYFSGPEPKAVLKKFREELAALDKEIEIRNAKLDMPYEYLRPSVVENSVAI
Text: In brief, an alkyne‐alcohol was linked to propargyl halide (Cl or Br) using a CuI‐catalyzed Sonogashira cross‐coupling reaction followed by biotinylation of the alcohol using EDCI and HOBt as reagents to provide the desired biotinylated bis‐alkyne probes. The biotinylated bis‐alkynes were subjected to 15‐LOX‐1 binding studies using a 15‐LOX‐1 activity assay based on the UV‐absorbance change for linoleic acid conversion (Figure 1 a). […] Next, we evaluated the effect of the extension of the terminal ethyl substitution of inhibitor 1. […]
empty plasmid was proceed with the same procedure, which lysate was used as the negative control (referred as BL21 control later) in 15-LOX-1 recombinant enzyme inhibition studies.
1.3. Purification of recombinant human 15-LOX-1
The 15-LOX-1 with N-terminal his-tag was produced as described above. After removing the cell debris, the supernatant containing 15-LOX-1 was loaded on a Ni-NTA column (Qiagen, Hilden, Germany) pre-equilibrated with LOX lysis buffer. The column was washed twice with 30 column volume of LOX lysis buffer, and once with 30 column volume of wash buffer (25 mM HEPES, 300 mM NaCl, 25 mM Imidazole, pH 8.0). Later, the 15-LOX-1 was eluted twice with 2 column volume of elution buffer (25 mM HEPES, 300 mM NaCl, 250 mM Imidazole, pH 8.0), followed by desalting with a PD-10 column (Sigma-Aldrich) with LOX storage buffer (25 mM HEPES, 20% Glycerol, pH 7.5). The desalted 15-LOX-1 was further purified and concentrated with Vivaspin Turbo 15 (30.000 MWCO). The protein concentration was determined by Nanodrop spectrophotometry. The 100 μl aliquots of 15-LOX-1 were stored at -20 for further experiments.
15-LOX-1 recombinant enzyme inhibition assay
The 15-LOX-1 inhibition assay has been detailed previously. Briefly, the conversion of linoleic acid to hydroperoxy-(9Z,11E)-octadecadienoic acid (λmax of 234 nm) was used to determine the activity of the 15-LOX-1 enzyme. The conversion rate was the slope of UV-absorbance at 234 nm overtime at the […]
To determine the IC50 of probes, the cell lysate was pre-diluted in LOX assay buffer at a ratio of 1:160. The inhibition assay was done in an F-bottom UV-STAR 96-well plate, in which 50 µl of the diluted enzyme was incubated with 140 µl of a probe diluted in LOX assay buffer for 10 min at room temperature (RT). Later 10 µl of 500 µM linoleic acid dissolved in ethanol was added to the plate to reach a final concentration of 25 µM. The UV-absorbance at 234 nm was determined by a BioTek Synergy H1 plate reader (BioTek, Winooski, VT, USA) . The slope of the 15-LOX-1 sample untreated with the probe was set as 100%, while the slope of the BL21 control sample was set as 0%.
For the determination of enzyme kinetics, a series concentration of linoleic acid was used. Fifty µl of pre-diluted 15-LOX-1 enzyme was incubated with 140 µl of probe solution at a fixed concentration for 10 min at RT. Subsequently, 10 µl of a series concentration of linoleic acid was added to a final concentration ranging from 10 µM to 100 µM. The conversion rate was calculated as the same as […]
described in the IC50 determination assay. Michaelis-Menten plots, Lineweaver-Burk plots, Km, and Vmax, are generated using GraphPad Prism 8.3.0. […]

15-LOX-1 [2] = molecular target: T1, 15-LOX-1; assay: Kitz-Wilson kinetic analysis of 15-LOX-1 inactivation; type: biochemical; parameters: His-tag (N); made in house; host or cells: E. coli BL21(DE3); conditions: for Ki: read-out: K i (equilibrium binding constant)
Experimental: Subsequently, Kitz‐Wilson analysis was performed to distinguish the equilibrium binding constant (K i) from the rate of covalent inactivation (k i). The different bis‐alkynes provided remarkably constant k i’s that varied by a factor 3 or less, whereas the K i’s varied by a factor 200 (Table 1). […] Improved non‐covalent binding is an important characteristic for activity‐based labeling because it implies improved specific recognition properties to the target of interest. Therefore, inhibitor 3 has been used for further development of a probe for activity‐based labeling of lipoxygenase activity with 15‐LOX‐1 as a reference enzyme. For convenient discussion, we named inhibitor 3, “Labelox B”. […]
described in the IC50 determination assay. Michaelis-Menten plots, Lineweaver-Burk plots, Km, and Vmax, are generated using GraphPad Prism 8.3.0.
1.5. Kits-Wilson kinetic analysis
The probes inhibit the 15-LOX-1 enzyme with a two-step reaction. First, a probe binds to an enzyme to get a reversible complex, E*I. The dissociation constant of inhibitor (Ki) is from the formation of E*I. Then, the probe forms a covalent bond with the enzyme, which generates an irreversible complex, E-I. The inactivation rate constant (ki) is to describe the rate of E-I generation. To determine these inactivation parameters, Kitz-Wilson analysis was employed. The procedure has been detailed previously

CCC#CCC#CCOC(=O)CCCC[C@@H]1SCC2NC(=O)NC21 (some centres unmarked) [Probe 1]
IC50 (15-LOX-1 [1]): 38.2 µM | Mode of inhibition (Lineweaver–Burk plots) (15-LOX-1 [1]): non‐competitive LOX inhibition | k i (rate of covalent inactivation) (15-LOX-1 [2]): 0.0136 ± 0.0061 min⁻¹ | Ki (15-LOX-1 [2]): 116 ± 19.5 µM

CCC#CCC#CC(C)OC(=O)CCCC[C@@H]1SCC2NC(=O)NC21 (some centres unmarked) [Probe 2]
IC50 (15-LOX-1 [1]): > 100 µM | LOX inhibitory potency (words) (15-LOX-1 [1]; structure-activity discussion): potency was lost

CCC#CCC#CCCOC(=O)CCCC[C@@H]1SC[C@@H]2NC(=O)N[C@@H]21 [Probe 4]
IC50 (15-LOX-1 [1]): 11.1 µM | LOX inhibitory potency (words) (15-LOX-1 [1]; structure-activity discussion in text, listed as 4): loss of LOX inhibitory potency | k i (rate of covalent inactivation) (15-LOX-1 [2]): 0.0093 ± 0.0031 min⁻¹ | Ki (15-LOX-1 [2]): 16.6 ± 3.29 µM

CCC#CCC#CCCCOC(=O)CCCC[C@@H]1SC[C@@H]2NC(=O)N[C@@H]21 [Probe 5]
IC50 (15-LOX-1 [1]): 19.8 µM | LOX inhibitory potency (words) (15-LOX-1 [1]; structure-activity discussion): loss of LOX inhibitory potency | k i (rate of covalent inactivation) (15-LOX-1 [2]): 0.0066 ± 0.0047 min⁻¹ | Ki (15-LOX-1 [2]): 38.7 ± 6.33 µM

CCCCCC#CCC#CCCCOC(=O)CCCC[C@@H]1SC[C@@H]2NC(=O)N[C@@H]21 [Probe 6]
LOX inhibitory potency (words) (15-LOX-1 [1]; structure-activity discussion in text, listed as 6): did not improve the potency

CCCCCC#CCC#CCCCOC(=O)CCCC[C@@H]1SC[C@@H]2NC(=O)N[C@@H]21 [Probe 7]
IC50 (15-LOX-1 [1]): > 100 µM | Mode of inhibition (Lineweaver–Burk plots) (15-LOX-1 [1]): non‐competitive LOX inhibition | LOX inhibitory potency (words) (15-LOX-1 [1]; structure-activity discussion in text, listed as 7): regain in potency

CCC#CCC#CCCOC(=O)CCCC[C@@H]1SC[C@@H]2NC(=O)N[C@@H]21 [Probe 8]
IC50 (15-LOX-1 [1]): > 100 µM | Mode of inhibition (Lineweaver–Burk plots) (15-LOX-1 [1]): non‐competitive LOX inhibition | LOX inhibitory potency (words) (15-LOX-1 [1]; structure-activity discussion in text, listed as 8): did not improve the potency

C#CCOC(=O)CCCC[C@@H]1SCC2NC(=O)NC21 (some centres unmarked) [Probe 9]
IC50 (15-LOX-1 [1]): > 100 µM

CCCC#CCOC(=O)CCCC[C@@H]1SCC2NC(=O)NC21 (some centres unmarked) [Probe 10]
IC50 (15-LOX-1 [1]): > 100 µM
